Source: patent publication US20240034737A1, “Heterocyclic Derivatives as P2X7 Receptor Antagonists” (BREYE THERAPEUTICS APS, priority 2020, published 2024)

What was measured:
mP2X7 = mP2X7 (Mus musculus (Mouse), UniProt Q9Z1M0); experiment: mP2X7 channel calcium-influx assay (Fluo-8 NW, FLIPR TETRA, Bz-ATP stimulation); assay type: cell-based
Protocol: (§1) Extracellular binding of Bz-ATP to P2X7 receptor opens the channel and allows Ca^2+ influx into the cells. This Ca^2+ entry was measured in HEK-293 cells stably transfected with P2X7 receptor using Screen Quest™ Fluo-8 No Wash Calcium Assay Kit (AAt Bioquest®, cat. 36316). Once inside the cell, the lipophilic blocking groups of Fluo-8 are cleaved by non-specific cell esterases, resulting in a negatively-charged fluorescent dye that stays inside cells. Its fluorescence increases upon binding to calcium. When HEK-293/P2X7 cells are stimulated with Bz-ATP, Ca^2+ enters the cells and the fluorescence of Fluo-8 NW increases.
(§2) HEK-293 cells stably transfected with P2X7 receptor were seeded overnight in growth medium at 10,000 to 20,000 cells/well in 384-well plate. 24 hours later, the medium was removed, and the cells were pre-loaded at RT for 1 hour with 20 μL/w of Fluo-8 NW. Then 10 μL/w of test compounds and reference antagonist A438079 at 3X-concentration were injected with the […] and the kinetic response over a period of five minutes was monitored.

P2X7 receptor = P2X7 receptor (Homo sapiens (Human), UniProt Q99572); experiment: Human P2X7 channel calcium-influx assay (Fluo-8 NW, FLIPR TETRA, Bz-ATP stimulation); assay type: cell-based; details: HEK-293 cells stably transfected with P2X7 receptor, Low Divalent Cation Assay Buffer, read-out: hP2X7 IC50
P2X7 receptor, sequence (Q99572 whole entry): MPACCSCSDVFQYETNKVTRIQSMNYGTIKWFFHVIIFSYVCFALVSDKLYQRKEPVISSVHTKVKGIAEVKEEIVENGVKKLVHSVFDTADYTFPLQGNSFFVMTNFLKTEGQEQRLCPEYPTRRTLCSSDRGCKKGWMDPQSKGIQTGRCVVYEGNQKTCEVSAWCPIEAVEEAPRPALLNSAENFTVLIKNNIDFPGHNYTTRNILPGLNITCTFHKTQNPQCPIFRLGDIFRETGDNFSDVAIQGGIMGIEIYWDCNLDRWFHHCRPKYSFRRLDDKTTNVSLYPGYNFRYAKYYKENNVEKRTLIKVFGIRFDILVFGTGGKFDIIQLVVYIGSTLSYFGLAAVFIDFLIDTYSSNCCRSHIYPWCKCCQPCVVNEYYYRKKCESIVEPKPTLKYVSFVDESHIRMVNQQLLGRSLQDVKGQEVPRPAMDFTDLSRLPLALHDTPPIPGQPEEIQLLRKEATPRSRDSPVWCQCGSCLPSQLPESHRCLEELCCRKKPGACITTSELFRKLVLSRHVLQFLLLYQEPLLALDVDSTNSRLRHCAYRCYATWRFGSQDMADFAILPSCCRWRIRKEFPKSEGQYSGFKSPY
Protocol: as §1, §2

mP2X7, sequence (Q9Z1M0 whole entry): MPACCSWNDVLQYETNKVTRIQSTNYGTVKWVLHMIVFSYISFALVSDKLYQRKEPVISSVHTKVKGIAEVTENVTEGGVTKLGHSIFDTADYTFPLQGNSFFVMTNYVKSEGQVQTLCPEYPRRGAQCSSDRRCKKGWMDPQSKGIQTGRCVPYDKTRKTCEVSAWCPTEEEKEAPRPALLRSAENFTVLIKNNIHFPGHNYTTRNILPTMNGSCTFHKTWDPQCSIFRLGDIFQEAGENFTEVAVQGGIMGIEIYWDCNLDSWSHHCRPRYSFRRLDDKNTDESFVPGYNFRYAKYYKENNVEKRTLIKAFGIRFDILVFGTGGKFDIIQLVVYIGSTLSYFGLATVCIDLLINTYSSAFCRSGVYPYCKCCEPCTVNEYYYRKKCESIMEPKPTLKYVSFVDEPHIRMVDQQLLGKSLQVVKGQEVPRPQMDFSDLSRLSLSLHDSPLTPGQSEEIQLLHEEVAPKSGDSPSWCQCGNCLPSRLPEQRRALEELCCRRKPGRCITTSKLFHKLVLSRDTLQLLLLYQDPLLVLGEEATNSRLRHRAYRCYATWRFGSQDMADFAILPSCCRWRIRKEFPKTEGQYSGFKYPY

IC50 (mP2X7)	IC50 (P2X7 receptor)	SMILES
53.5 nM	21.7 nM	O=C(NCC(c1scnc1C(F)F)N1CCC(Oc2ccccn2)CC1)c1c(F)cccc1Cl (stereo not drawn) [Example 1, 2-chloro-N-{2-[4-(difluoromethyl)-1,3-thiazol-5-yl]-2-[4-(pyridin-2-yloxy)piperidin-1-yl]ethyl}-6-fluorobenzamide]
408 nM	58.2 nM	O=C(NCC(c1scnc1C(F)F)N1CCC(Oc2ncccn2)CC1)c1c(F)cccc1Cl (stereo not drawn) [Example 4, 2-chloro-N-{2-[4-(difluoromethyl)-1,3-thiazol-5-yl]-2-[4-(pyrimidin-2-yloxy)piperidin-1-yl]ethyl}-6-fluorobenzamide]
69.7 nM	49.9 nM	O=C(NCC(c1scnc1C(F)F)N1CCC(Oc2ccncc2F)CC1)c1c(F)cccc1Cl (stereo not drawn) [Example 6, 2-chloro-N-{2-[4-(difluoromethyl)-1,3-thiazol-5-yl]-2-{4-[(3-fluoropyridin-4-yl)oxy]piperidin-1-yl}ethyl}-6-fluorobenzamide]
191 nM	23.5 nM	O=C(NCC(c1scnc1C(F)F)N1CCC(Oc2nccs2)CC1)c1c(F)cccc1Cl (stereo not drawn) [Example 10, 2-chloro-N-{2-[4-(difluoromethyl)-1,3-thiazol-5-yl]-2-[4-(1,3-thiazol-2-yloxy)piperidin-1-yl]ethyl}-6-fluorobenzamide]
43.9 nM	11.8 nM	O=C(NCC(c1scnc1C(F)F)N1CCC(Oc2nc(Cl)cs2)CC1)c1c(F)cccc1Cl (stereo not drawn) [Example 12, 2-Chloro-N-(2-{4-[(4-chloro-1,3-thiazol-2-yl)oxy]piperidin-1-yl}-2-[4-(difluoromethyl)-1,3-thiazol-5-yl]ethyl)-6-fluorobenzamide]
68.3 nM	56.9 nM	N#Cc1cncc(OC2CCN(C(CNC(=O)c3c(F)cccc3Cl)c3scnc3C(F)F)CC2)c1 (stereo not drawn) [Example 16, 2-Chloro-N-(2-{4-[(5-cyanopyridin-3-yl)oxy]piperidin-1-yl}-2-[4-(difluoromethyl)-1,3-thiazol-5-yl]ethyl)-6-fluorobenzamide]
320 nM	55 nM	N#Cc1nccnc1OC1CCN(C(CNC(=O)c2c(F)cccc2Cl)c2scnc2C(F)F)CC1 (stereo not drawn) [Example 17, 2-Chloro-N-(2-{4-[(3-cyanopyrazin-2-yl)oxy]piperidin-1-yl}-2-[4-(difluoromethyl)-1,3-thiazol-5-yl]ethyl)-6-fluorobenzamide]
186 nM	41.1 nM	N#Cc1ncccc1OC1CCN(C(CNC(=O)c2c(F)cccc2Cl)c2scnc2C(F)F)CC1 (stereo not drawn) [Example 18, 2-Chloro-N-(2-{4-[(2-cyanopyridin-3-yl)oxy]piperidin-1-yl}-2-[4-(difluoromethyl)-1,3-thiazol-5-yl]ethyl)-6-fluorobenzamide]
14 nM	17.5 nM	O=C(NCC(c1scnc1C(F)F)N1CCC(Oc2nc3ccccc3s2)CC1)c1c(F)cccc1Cl (stereo not drawn) [Example 20, N-{2-[4-(1,3-Benzothiazol-2-yloxy)piperidin-1-yl]-2-[4-(difluoromethyl)-1,3-thiazol-5-yl]ethyl}-2-chloro-6-fluorobenzamide]
12.3 nM	20.5 nM	O=C(NCC(c1scnc1C(F)F)N1CCC(Oc2nc3ccccc3o2)CC1)c1c(F)cccc1Cl (stereo not drawn) [Example 22, N-{2-[4-(1,3-Benzoxazol-2-yloxy)piperidin-1-yl]-2-[4-(difluoromethyl)-1,3-thiazol-5-yl]ethyl}-2-chloro-6-fluorobenzamide]
183 nM	73.6 nM	COCCc1nsc(OC2CCN(C(CNC(=O)c3c(F)cccc3Cl)c3scnc3C(F)F)CC2)n1 (stereo not drawn) [Example 23, 2-Chloro-N-{2-[4-(difluoromethyl)-1,3-thiazol-5-yl]-2-(4-{[3-(2-methoxyethyl)-1,2,4-thiadiazol-5-yl]oxy}piperidin-1-yl)ethyl}-6-fluorobenzamide]
32.4 nM	98.1 nM	O=C(NCC(c1scnc1C(F)F)N1CCC(Oc2nc(-c3ccccc3)no2)CC1)c1c(F)cccc1Cl (stereo not drawn) [Example 24, 2-Chloro-N-{2-[4-(difluoromethyl)-1,3-thiazol-5-yl]-2-{4-[(3-phenyl-1,2,4-oxadiazol-5-yl)oxy]piperidin-1-yl}ethyl}-6-fluorobenzamide]
45.8 nM	57.7 nM	O=C(NCC(c1scnc1C(F)F)N1CCC(Oc2nnnn2-c2ccccc2)CC1)c1c(F)cccc1Cl (stereo not drawn) [Example 25, 2-Chloro-N-{2-[4-(difluoromethyl)-1,3-thiazol-5-yl]-2-{4-[(1-phenyl-1H-1,2,3,4-tetrazol-5-yl)oxy]piperidin-1-yl}ethyl}-6-fluorobenzamide]
206 nM	64.4 nM	Cc1cnc(OC2CCN(C(CNC(=O)c3c(F)cccc3Cl)c3scnc3C(F)F)CC2)nc1 (stereo not drawn) [Example 28, 2-Chloro-N-{2-[4-(difluoromethyl)-1,3-thiazol-5-yl]-2-{4-[(5-methylpyrimidin-2-yl)oxy]piperidin-1-yl}ethyl}-6-fluorobenzamide]
87.6 nM	31.7 nM	Cc1ccc(OC2CCN(C(CNC(=O)c3c(F)cccc3Cl)c3scnc3C(F)F)CC2)nn1 (stereo not drawn) [Example 29, 2-Chloro-N-{2-[4-(difluoromethyl)-1,3-thiazol-5-yl]-2-{4-[(6-methylpyridazin-3-yl)oxy]piperidin-1-yl}ethyl}-6-fluorobenzamide]
24 nM	17.3 nM	O=C(NCC(c1scnc1C(F)F)N1CCC(Oc2ccc(F)cn2)CC1)c1c(F)cccc1Cl (stereo not drawn) [Example 30, 2-Chloro-N-{2-[4-(difluoromethyl)-1,3-thiazol-5-yl]-2-{4-[(5-fluoropyridin-2-yl)oxy]piperidin-1-yl}ethyl}-6-fluorobenzamide]
136 nM	61.2 nM	O=C(NCC(c1scnc1C(F)F)N1CCC(Oc2cc(F)ncn2)CC1)c1c(F)cccc1Cl (stereo not drawn) [Example 31, 2-Chloro-N-{2-[4-(difluoromethyl)-1,3-thiazol-5-yl]-2-{4-[(6-fluoropyrimidin-4-yl)oxy]piperidin-1-yl}ethyl}-6-fluorobenzamide]
52.5 nM	39.9 nM	O=C(NCC(c1scnc1C(F)F)N1CCC(Oc2cncc(F)n2)CC1)c1c(F)cccc1Cl (stereo not drawn) [Example 33, 2-Chloro-N-{2-[4-(difluoromethyl)-1,3-thiazol-5-yl]-2-{4-[(6-fluoropyrazin-2-yl)oxy]piperidin-1-yl}ethyl}-6-fluorobenzamide]
174 nM	55.5 nM	O=C(NCC(c1scnc1C(F)F)N1CCC(Oc2nccnc2F)CC1)c1c(F)cccc1Cl (stereo not drawn) [Example 34, 2-Chloro-N-{2-[4-(difluoromethyl)-1,3-thiazol-5-yl]-2-{4-[(3-fluoropyrazin-2-yl)oxy]piperidin-1-yl}ethyl}-6-fluorobenzamide]
190 nM	71.1 nM	O=C(NCC(c1scnc1C(F)F)N1CCC(Oc2ccnc(F)n2)CC1)c1c(F)cccc1Cl (stereo not drawn) [Example 35, 2-Chloro-N-{2-[4-(difluoromethyl)-1,3-thiazol-5-yl]-2-{4-[(2-fluoropyrimidin-4-yl)oxy]piperidin-1-yl}ethyl}-6-fluorobenzamide]
126 nM	53.8 nM	N#Cc1cccnc1OC1CCN(C(CNC(=O)c2c(F)cccc2Cl)c2scnc2C(F)F)CC1 (stereo not drawn) [Example 36, 2-Chloro-N-(2-{4-[(3-cyanopyridin-2-yl)oxy]piperidin-1-yl}-2-[4-(difluoromethyl)-1,3-thiazol-5-yl]ethyl)-6-fluorobenzamide]
28.5 nM	28 nM	N#Cc1cccc(OC2CCN(C(CNC(=O)c3c(F)cccc3Cl)c3scnc3C(F)F)CC2)n1 (stereo not drawn) [Example 37, 2-Chloro-N-(2-{4-[(6-cyanopyridin-2-yl)oxy]piperidin-1-yl}-2-[4-(difluoromethyl)-1,3-thiazol-5-yl]ethyl)-6-fluorobenzamide]
79.6 nM	57.5 nM	N#Cc1ccncc1OC1CCN(C(CNC(=O)c2c(F)cccc2Cl)c2scnc2C(F)F)CC1 (stereo not drawn) [Example 38, 2-Chloro-N-(2-{4-[(4-cyanopyridin-3-yl)oxy]piperidin-1-yl}-2-[4-(difluoromethyl)-1,3-thiazol-5-yl]ethyl)-6-fluorobenzamide]
44.6 nM	51.1 nM	Cc1nc(F)cc(OC2CCN(C(CNC(=O)c3c(F)cccc3Cl)c3scnc3C(F)F)CC2)n1 (stereo not drawn) [Example 39, 2-Chloro-N-{2-[4-(difluoromethyl)-1,3-thiazol-5-yl]-2-{4-[(6-fluoro-2-methylpyrimidin-4-yl)oxy]piperidin-1-yl}ethyl}-6-fluorobenzamide]
50.6 nM	32.7 nM	Cc1c(F)ncnc1OC1CCN(C(CNC(=O)c2c(F)cccc2Cl)c2scnc2C(F)F)CC1 (stereo not drawn) [Example 40, 2-Chloro-N-{2-[4-(difluoromethyl)-1,3-thiazol-5-yl]-2-{4-[(6-fluoro-5-methylpyrimidin-4-yl)oxy]piperidin-1-yl}ethyl}-6-fluorobenzamide]
108 nM	60.8 nM	O=C(NCC(c1scnc1C(F)F)N1CCC(Oc2nccc(C(F)(F)F)n2)CC1)c1c(F)cccc1Cl (stereo not drawn) [Example 42, 2-Chloro-N-{2-[4-(difluoromethyl)-1,3-thiazol-5-yl]-2-(4-{[4-(trifluoromethyl)pyrimidin-2-yl]oxy}piperidin-1-yl)ethyl}-6-fluorobenzamide]
63.9 nM	69.2 nM	O=C(NCC(c1scnc1C(F)F)N1CCC(Oc2cc(C(F)(F)F)ncn2)CC1)c1c(F)cccc1Cl (stereo not drawn) [Example 43, 2-Chloro-N-{2-[4-(difluoromethyl)-1,3-thiazol-5-yl]-2-(4-{[6-(trifluoromethyl)pyrimidin-4-yl]oxy}piperidin-1-yl)ethyl}-6-fluorobenzamide]
